Data on three compounds can be found in US20210045385A1, “PYRIDAZINONE-SUBSTITUTED KETOXIMES AS HERBICIDES” (FMC Corporation, priority 2018, published 2021).

The structures appear in SMILES notation.

Holding throughout (type): in vivo
Assay [1] deals with kochia (Bassia scoparia). In words: Test C preemergence, visual plant response rating. To be noted: 1000 g ai/ha. From the text:
(§1) Seeds of plant species selected from barnyardgrass (Echinochloa crus-galli), kochia (Bassia scoparia), ragweed (common ragweed, Ambrosia artemisiifolia), Italian ryegrass (Lolium mutiflorum), foxtail, giant (giant foxtail, Setaria faberi), foxtail, green (green foxtail, Setaria viridis), and pigweed (Amaranthus retroflexus) were planted into a blend of loam soil and sand and treated preemergence with a directed soil spray using test chemicals formulated in anon-phytotoxic solvent mixture which included a surfactant.
(§2) At the same time, plants selected from these weed species and also wheat (Triticum aestivum), corn (Zea mays), blackgrass (Alopecurus myosuroides), and galium (catchweed bedstraw, Galium aparine) were planted in pots containing the same blend of loam soil and sand and treated with post emergence applications of test chemicals formulated in the same manner. Plants ranged in height from 2 to 10 cm and were in the one- to two-leaf stage for the postemergence treatment. Treated plants and untreated controls were maintained in a greenhouse for approximately 10 d, after which time all treated plants were compared to untreated controls and visually evaluated for injury. Plant response ratings, summarized in Table C, are based on a 0 to 100 scale where 0 is no effect and 100 is complete control. A dash (-)response means no test result.

Assay [2] deals with ragweed (common ragweed, Ambrosia artemisiifolia). Kind of assay: Test C preemergence, visual plant response rating. To be noted: 1000 g ai/ha.
Source text: as §1, §2

In assay [3] the test system is pigweed (Amaranthus retroflexus). Kind of assay: Test C preemergence, visual plant response rating. To be noted: 1000 g ai/ha.
Source text: as §1, §2

The subject of assay [4] is Italian ryegrass (Lolium mutiflorum). Kind of assay: Test C preemergence, visual plant response rating. To be noted: 1000 g ai/ha.
Source text: as §1, §2

Assay [5] has as its system barnyardgrass (Echinochloa crus-galli). In words: Test C preemergence, visual plant response rating. To be noted: 1000 g ai/ha.
Source text: as §1, §2

In assay [6] the test system is foxtail, giant (giant foxtail, Setaria faberi). Kind of assay: Test C preemergence, visual plant response rating. Particulars: 1000 g ai/ha.
Source text: as §1, §2

Assay [7] deals with kochia (Bassia scoparia). In words: Test C postemergence, visual plant response rating. To be noted: Test C, postemergence, 1000 g ai/ha.
Source text: as §1, §2

Assay [8] deals with galium (catchweed bedstraw, Galium aparine). Kind of assay: Test C postemergence, visual plant response rating. To be noted: Test C, postemergence, 1000 g ai/ha.
Source text: as §1, §2

Another assay relates to corn (Zea mays). In words: Test C postemergence, visual plant response rating. To be noted: Test C, postemergence, 1000 g ai/ha.
Source text: as §1, §2

In assay [9] the test system is ragweed (common ragweed, Ambrosia artemisiifolia). Kind of assay: Test C postemergence, visual plant response rating. Particulars: Test C, postemergence, 1000 g ai/ha.
Source text: as §1, §2

The test system of assay [10] is pigweed (Amaranthus retroflexus). In words: Test C postemergence, visual plant response rating. To be noted: Test C, postemergence, 1000 g ai/ha.
Source text: as §1, §2

The subject of assay [11] is Italian ryegrass (Lolium mutiflorum). Kind of assay: Test C postemergence, visual plant response rating. To be noted: Test C, postemergence, 1000 g ai/ha.
Source text: as §1, §2

The subject of assay [12] is wheat (Triticum aestivum). In words: Test C postemergence, visual plant response rating. Particulars: Test C, postemergence, 1000 g ai/ha.
Source text: as §1, §2

Assay [13] has as its system blackgrass (Alopecurus myosuroides). In words: Test C postemergence, visual plant response rating. To be noted: Test C, postemergence, 1000 g ai/ha.
Source text: as §1, §2

Assay [14] relates to barnyardgrass (Echinochloa crus-galli). In words: Test C postemergence, visual plant response rating. Particulars: Test C, postemergence, 1000 g ai/ha.
Source text: as §1, §2

Assay [15] has as its system foxtail, giant (giant foxtail, Setaria faberi). In words: Test C postemergence, visual plant response rating. To be noted: Test C, postemergence, 1000 g ai/ha.
Source text: as §1, §2

Turning to `CCO/N=C(/c1c(O)cnn(C)c1=O)c1cccc2ccccc12` [Compound 225], the “Kochia plant response rating (0 to 100 scale)” value (“Kochia plant response rating” below) with kochia (Bassia scoparia) [1] and in the assay on kochia (Bassia scoparia) [7] was 10 each time. Moreover, the results for the “Ragweed plant response rating (0 to 100 scale)” value (from here on “Ragweed plant response rating”) in assay [2] and in assay [9] were 40 and 70, respectively. Besides, the “Pigweed plant response rating (0 to 100 scale)” value (“Pigweed plant response rating” below) was 80 in assay [3] and 60 in assay [10]. Besides, the “Ryegrass, Italian plant response rating (0 to 100 scale)” value (shortened to “Ryegrass, Italian plant response rating”) in [4] and in [11] was 0 each time. For the same compound, the “Barnyardgrass plant response rating (0 to 100 scale)” value (shortened to “Barnyardgrass plant response rating”) in assay [5] was 0; in assay [14], 10. Moreover, the “Foxtail, Giant plant response rating (0 to 100 scale)” value (shortened to “Foxtail, Giant plant response rating”) in [6] was 60; in [15] it was 20. In assay [8], the “Galium plant response rating (0 to 100 scale)” value (“Galium plant response rating” below) is 90. Also, the “Corn plant response rating (0 to 100 scale)” value (from here on “Corn plant response rating”) in the assay on corn (Zea mays) is given as 0. In addition, the “Wheat plant response rating (0 to 100 scale)” value (“Wheat plant response rating” for short) in [12] was 0. In assay [13], the “Blackgrass plant response rating (0 to 100 scale)” value (from here on “Blackgrass plant response rating”) came out at 20.

Turning to `CO/N=C(\c1c(O)cnn(C)c1=O)c1cccc2ccccc12` [Compound 238], the “Kochia plant response rating” value in the assay on kochia (Bassia scoparia) [1] was 30; with kochia (Bassia scoparia) [7], 80. For the same compound, the “Ragweed plant response rating” value was 90 in assay [2] and 30 in [9]. The “Pigweed plant response rating” value amounted to 100 in assay [3] and 90 in assay [10]. Besides, the “Ryegrass, Italian plant response rating” value in assay [4] is listed as 20; in assay [11], 0. Further, the “Barnyardgrass plant response rating” value in assay [5] is on record as 0; in assay [14] it was 20. Moreover, the “Foxtail, Giant plant response rating” value in assay [6] and in assay [15] was 40 throughout. Also, in [8], the “Galium plant response rating” value amounted to 90. The “Corn plant response rating” value with corn (Zea mays) is 0. The “Wheat plant response rating” value in assay [12] amounted to 0. For the same compound, the “Blackgrass plant response rating” value in assay [13] turned out to be 20.

In the case of `CCO/N=C(\c1c(O)cnn(C)c1=O)c1cccc2ccccc12` [Compound 224], the “Kochia plant response rating” value in the assay with kochia (Bassia scoparia) [1] came to 20; in the assay on kochia (Bassia scoparia) [7] it was 0. Further, the “Ragweed plant response rating” value in assay [2] was determined as 70; in assay [9] it was 50. In addition, the “Pigweed plant response rating” value was 100 in assay [3] and 50 in assay [10]. Moreover, the “Ryegrass, Italian plant response rating” value in assay [4] and in assay [11] was 0 throughout. Also, the “Barnyardgrass plant response rating” value in [5] and in assay [14] was 10 throughout. The “Foxtail, Giant plant response rating” value in assay [6] is 80; in assay [15] it was 50. Further, in assay [8], the “Galium plant response rating” value turned out to be 90. For the same compound, the “Corn plant response rating” value with corn (Zea mays) is given as 0. Also, the “Wheat plant response rating” value in assay [12] worked out at 0. Also, in assay [13], the “Blackgrass plant response rating” value is 10.
